Laboratory results from the supplement of paper PMC13207355.

Assays:
Details in all cases: exposure time: 72 h
E28 [1] = patient-derived glioblastoma stem cells of classical subtype; test: surviving fraction (nuclei count normalised to DMSO); higher = more cells surviving (less toxic)
E31 [2] = patient-derived glioblastoma stem cells of proneural subtype; test: as above
E21 [3] = patient-derived glioblastoma stem cells of mesenchymal subtype; test: as above
E57 [4] = patient-derived glioblastoma stem cells of mesenchymal subtype; test: as above
FT3469 [5] = normal neural stem cell line; test: as above
E34 [6] = patient-derived glioblastoma stem cells of proneural subtype; test: as above
E13 [7] = patient-derived glioblastoma stem cells of classical subtype; test: as above
E28 [8] = test: phenotypic distance (Euclidean, principal components) from DMSO controls (arbitrary units); higher = stronger morphological change
E31 [9] = test: as above
E21 [10] = test: as above
E57 [11] = test: as above
FT3469 [12] = test: as above
E34 [13] = test: as above
E13 [14] = test: as above
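Throughout, for phenotypic distance (Euclidean, principal components) from DMSO controls: cell Painting imaging in 384-well plates, CellProfiler features reduced to at least 20 principal components, Euclidean distance versus same-plate DMSO vehicle wells (0.1% v/v), median over six images per well.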
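Throughout, for surviving fraction (nuclei count normalised to DMSO): nuclei counted by high-content imaging of Hoechst-stained cells in laminin-coated 384-well plates, relative to 0.1% DMSO vehicle wells, with staurosporine as cell-death control.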

Oc1ccc(OCc2ccccc2)cc1 [Monobenzone]
Details | phenotypic distance | surviving fraction
E13 [7], 4.1 nM | – | 1.02
E13 [7], 12.3 nM | – | 1.11
E13 [7], 37 nM | – | 0.916
E13 [7], 111.1 nM | – | 1.04
E13 [7], 333.3 nM | – | 0.962
E13 [7], 1000 nM | – | 1.06
E13 [7], 3000 nM | – | 0.738
E13 [14], 4.1 nM | 0.73 | –
E13 [14], 12.3 nM | 0.686 | –
E13 [14], 37 nM | 0.829 | –
E13 [14], 111.1 nM | 0.608 | –
E13 [14], 333.3 nM | 0.563 | –
E13 [14], 1000 nM | 0.694 | –
E13 [14], 3000 nM | 1.62 | –
E21 [3], 4.1 nM | – | 1.01
E21 [3], 12.3 nM | – | 1.02
E21 [3], 37 nM | – | 0.985
E21 [3], 111.1 nM | – | 0.974
E21 [3], 333.3 nM | – | 1.01
E21 [3], 1000 nM | – | 0.951
E21 [3], 3000 nM | – | 0.932
E21 [10], 4.1 nM | 0.533 | –
E21 [10], 12.3 nM | 0.297 | –
E21 [10], 37 nM | 0.463 | –
E21 [10], 111.1 nM | 0.324 | –
E21 [10], 333.3 nM | 0.511 | –
E21 [10], 1000 nM | 0.562 | –
E21 [10], 3000 nM | 1.35 | –
E28 [1], 4.1 nM | – | 1.09
E28 [1], 12.3 nM | – | 1.17
E28 [1], 37 nM | – | 1.12
E28 [1], 111.1 nM | – | 1.02
E28 [1], 333.3 nM | – | 1.04
E28 [1], 1000 nM | – | 1.04
E28 [1], 3000 nM | – | 0.875
E28 [8], 4.1 nM | 0.962 | –
E28 [8], 12.3 nM | 0.487 | –
E28 [8], 37 nM | 0.802 | –
E28 [8], 111.1 nM | 0.466 | –
E28 [8], 333.3 nM | 0.474 | –
E28 [8], 1000 nM | 0.692 | –
E28 [8], 3000 nM | 1.42 | –
E31 [2], 4.1 nM | – | 1.17
E31 [2], 12.3 nM | – | 1.1
E31 [2], 37 nM | – | 1.24
E31 [2], 111.1 nM | – | 1.19
E31 [2], 333.3 nM | – | 1.04
E31 [2], 1000 nM | – | 1.06
E31 [2], 3000 nM | – | 0.603
E31 [9], 4.1 nM | 0.6 | –
E31 [9], 12.3 nM | 0.685 | –
E31 [9], 37 nM | 0.704 | –
E31 [9], 111.1 nM | 0.686 | –
E31 [9], 333.3 nM | 0.51 | –
E31 [9], 1000 nM | 0.575 | –
E31 [9], 3000 nM | 1.87 | –
E34 [6], 4.1 nM | – | 1.13
E34 [6], 12.3 nM | – | 0.972
E34 [6], 37 nM | – | 0.966
E34 [6], 111.1 nM | – | 1.13
E34 [6], 333.3 nM | – | 0.984
E34 [6], 1000 nM | – | 1.12
E34 [6], 3000 nM | – | 1.07
E34 [13], 4.1 nM | 0.726 | –
E34 [13], 12.3 nM | 0.858 | –
E34 [13], 37 nM | 0.945 | –
E34 [13], 111.1 nM | 0.661 | –
E34 [13], 333.3 nM | 0.606 | –
E34 [13], 1000 nM | 0.28 | –
E34 [13], 3000 nM | 0.624 | –
E57 [4], 4.1 nM | – | 1.07
E57 [4], 12.3 nM | – | 1.06
E57 [4], 37 nM | – | 1.14
E57 [4], 111.1 nM | – | 1.05
E57 [4], 333.3 nM | – | 0.979
E57 [4], 1000 nM | – | 0.963
E57 [4], 3000 nM | – | 0.842
E57 [11], 4.1 nM | 0.522 | –
E57 [11], 12.3 nM | 0.58 | –
E57 [11], 37 nM | 1.19 | –
E57 [11], 111.1 nM | 1.86 | –
E57 [11], 333.3 nM | 0.673 | –
E57 [11], 1000 nM | 0.736 | –
E57 [11], 3000 nM | 3.91 | –
FT3469 [5], 4.1 nM | – | 1.35
FT3469 [5], 12.3 nM | – | 1.12
FT3469 [5], 37 nM | – | 1.14
FT3469 [5], 111.1 nM | – | 0.963
FT3469 [5], 333.3 nM | – | 1.02
FT3469 [5], 1000 nM | – | 0.999
FT3469 [5], 3000 nM | – | 0.689
FT3469 [12], 4.1 nM | 1.23 | –
FT3469 [12], 12.3 nM | 0.456 | –
FT3469 [12], 37 nM | 0.649 | –
FT3469 [12], 111.1 nM | 0.576 | –
FT3469 [12], 333.3 nM | 1.04 | –
FT3469 [12], 1000 nM | 0.884 | –
FT3469 [12], 3000 nM | 1.07 | –
